Article PMC9221443, “Peptidomimetics Based on C-Terminus of Blm10 Stimulate Human 20S Proteasome Activity and Promote Degradation of Proteins” (Biomolecules, 2022)
One block for each compound: values may come before it.

Experiments:
[1] = tested on: ChT-L peptidase of proteasome in HEK293T cell extracts; assay: Proteasome ChT-L activity in HEK293T cell lysates; assay type: biochemical, human; settings: 1 µM; HEK293T lysate 20 µg/mL protein; 100 µM Suc-LLVY-AMC
Description: Human embryonic kidney cells (HEK293T) were maintained in Dulbecco’s Modified Eagle Medium (DMEM) supplemented with 10% Fetal Bovine Serum and penicillin/streptomycin (100 units/mL/100 µg/mL), at 37 °C with 5% CO2. Cells were grown in a T-75 flask to ~80% confluency and then were lysed using Reporter Lysis Buffer (Promega, Madison, WI, USA) and the manufacturer’s protocol. Protein content was measured using BCA assay. Stock solutions of the fluorogenic substrate (Suc-LLVY-AMC) and the tested peptidomimetics were prepared in dimethyl sulfoxide (DMSO). Potential activators were tested in the following concentrations: 1, 5, 10, 25 and 50 μM. The final DMSO concentration was kept constant at 2%. The activity assays were performed analogously to those described in the proteasome activity assays subsection, in the 96-well plate format in 50 mM Tris-HCl buffer, pH 8.0, using a 100 μL reaction volume. The final concentration of the fluorogenic substrate and cell lysate proteins were: 100 μM and 20 µg/mL, respectively. As a negative control, 1 μM bortezomib solution was used.

20S proteasome (h20S) = assay: Microscale thermophoresis (MST) protein-proteasome interaction; assay type: binding, human; settings: NT-647-labeled protein titrated with h20S 0.06-1965 nM, 22 °C, 20 mM Tris-HCl pH 7.2, three independent experiments
Description: Enolase, α-synuclein and their oxidized forms were labeled using Monolith Protein Labeling Kit RED-NHS 2nd Generation Amine Reactive, NT-647 (Nanotemper, München, Germany), according to the manufacturer instructions. The labeling process was carried out in 50 mM HEPES buffer, pH 7.4, in the protein:NT-647 1:2 ratio. The incubation time was 60 min for enolase and 30 min for α-synuclein, at 21 °C. After labeling, the excess of the fluorescent reagent was removed using the columns provided by the manufacturer and 20 mM Tris-HCl buffer, pH 7.2, containing 200 mM NaCl and 10% glycerol. The obtained labeled proteins were concentrated on Amicon 3K spin-columns (Merck, Darmstadt, Germany). Protein concentrations were determined by measuring absorbance at 280 nm, using UV/Vis spectrophotometer (DU®730 Beckman Coulter).
Direct interactions between the fluorescently labeled, native and oxidized, proteins and the 20S proteasome were examined using microscale thermophoresis (NanoTemper Monolith NT.115). The labeled protein concentration was kept constant at 250 nM for native and oxidized α-synuclein and 125 nM and 25 nM for native and oxidized enolase, respectively. […] The EC50 values were calculated based on results obtained in three independent experiments.

Compound: CC(C)C[C@H](NC(=O)[C@H](Cc1ccccc1)NC(=O)c1cnccn1)B(O)O [bortezomib]
- degradation of Suc-LLVY-AMC substrate in cell extracts (negative control) [1]: completely blocked

- EC50 of binding to 20S proteasome (MST, Hill fit) (20S proteasome (h20S)): did not bind
Compound: enolase: native human enolase 2, 434-residue thermolabile protein, model substrate

- EC50 (20S proteasome (h20S); read-out: EC50 of binding to 20S proteasome (MST, Hill fit)): 32.3 ± 1.3 nM
Compound: α-synuclein
